Here are results for 27 compounds from patent publication US11453690B2, “Receptor inhibitor, pharmaceutical composition comprising same, and use thereof” (BEIJING TIDE PHARMACEUTICAL CO., LTD., priority 2018, dated 2022).

Bounds are passed on as bounds.

Experiment [1] concerns the target AT2 Receptor (AT2R) (Homo sapiens (Human), UniProt P50052). Description: Measurement of inhibitory activity on AT2 receptor (Tag-lite HTRF, Tb-labeled AT2R cells, angiotensin receptor red agonist). The settings on record: 1 h room temperature. The class given is binding.
In experiment [2] the target is AT1 Receptor (AT1R) (Homo sapiens (Human), UniProt P30556). Description: Measurement of inhibitory activity on AT1 receptor (Tag-lite HTRF, Tb-labeled AT1R cells, angiotensin receptor red agonist). It counts as binding. The settings on record: 1 h room temperature. The method, then: Measurement of Inhibitory Activity on AT1 Receptor ([…])/AT2 Receptor (AT2R)
Through the following steps, the inhibitory activity of the compound on AT1R/AT2R (IC50 value) was determined:
1) An appropriate amount of 1×TLB (Tag-lite Buffer) was prepared and well mixed for use.
2) The compound was diluted by 10 times with ddH2O or DMSO. The compound was then dilute to 4 times of the working concentration with 1×TLB and mixed well for use.
3) 8600 nM Tag-lite angiotensin receptor red agonist was diluted to 12 nM (4×Kd) with 1×TLB.
4) 5 ml 1×TLB was taken into a 15 ml centrifuge tube.
5) After thawing 1 tube of Tb-labeled AT1R/AT2R cells in a 37° C. water bath, the cells were quickly transferred to the 1×TLB in step 4), mixed gently, and centrifuged at 1200 g for 5 minutes at room temperature.
6) The supernatant was aspirated gently, and the cells were resuspended and mixed in 2.7 ml 1×TLB, and then placed at room temperature until use.
7) 10 μl cells were added to all test wells, and 5 μl 4× working solution of the compound from step 2) was added to the corresponding test wells. 5 μl 4× Tag-lite angiotensin receptor red agonist well diluted in step 3) was added to all test wells.
8) After leaving the reaction plate at room temperature for 1 h, data were measured and analyzed using Envision HTRF Reader, and the half inhibitory concentration (IC50) of the compound on AT1R/AT2R was calculated with the GraphPad Prism four-parameter equation.
For orientation: In TR-FRET formats the signal depends on donor and acceptor labels being close together.

Chain of AT1 Receptor (AT1R) (P30556 whole entry): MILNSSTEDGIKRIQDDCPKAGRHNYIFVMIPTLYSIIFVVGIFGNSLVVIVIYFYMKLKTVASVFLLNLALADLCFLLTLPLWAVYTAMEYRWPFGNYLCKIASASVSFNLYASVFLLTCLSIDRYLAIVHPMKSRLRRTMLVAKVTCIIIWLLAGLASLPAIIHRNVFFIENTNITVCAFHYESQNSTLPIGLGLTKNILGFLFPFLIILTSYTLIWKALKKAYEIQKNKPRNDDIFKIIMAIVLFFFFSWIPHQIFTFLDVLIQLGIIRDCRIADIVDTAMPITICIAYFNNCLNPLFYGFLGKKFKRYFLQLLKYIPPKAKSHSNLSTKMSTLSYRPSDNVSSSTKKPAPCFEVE
Chain of AT2 Receptor (AT2R) (P50052 whole entry): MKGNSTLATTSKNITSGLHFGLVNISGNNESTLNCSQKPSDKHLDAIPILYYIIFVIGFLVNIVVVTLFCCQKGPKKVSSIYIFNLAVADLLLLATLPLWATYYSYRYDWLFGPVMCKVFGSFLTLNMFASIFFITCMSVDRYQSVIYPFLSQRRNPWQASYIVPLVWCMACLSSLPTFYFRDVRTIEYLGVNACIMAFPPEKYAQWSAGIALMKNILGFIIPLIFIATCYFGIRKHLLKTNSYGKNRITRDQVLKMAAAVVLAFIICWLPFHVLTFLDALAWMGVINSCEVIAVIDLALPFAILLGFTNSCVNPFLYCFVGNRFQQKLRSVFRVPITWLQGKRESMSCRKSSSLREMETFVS

On to `O=C(O)[C@@H]1[C@H]2CC[C@@H](CN1C(=O)C(c1ccccc1)c1ccccc1)N2C(=O)Nc1ccccc1` [Compound C83, (1R,2S,5S)-3-(2,2-diphenylacetyl)-8-(phenylcarbamoyl)-3,8-diazabicyclo [3.2.1]octane-2-carboxylic acid], for which the IC50 is 18.1 nM in experiment [1] and above 10000 nM in experiment [2].

With `O=C(O)[C@H]1[C@@H]2CC[C@H](CN1C(=O)N(c1ccccc1)c1ccccc1)N2C(=O)N(c1ccccc1)c1ccccc1` [Compound C14, (1S,2R,5R)-3,8-bis (diphenylcarbamoyl)-3,8-diazabicyclo [3.2.1]octane-2-carboxylic acid], the IC50 in experiment [1] is 29.4 nM; in experiment [2], above 10000 nM.

Take `CN(Cc1ccc(C#N)cc1)C(=O)N1[C@H]2CC[C@@H]1[C@H](C(=O)O)N(C(=O)N(c1ccccc1)c1ccccc1)C2` [Compound C167, (1R,2R,5S)-8-((4-cyanobenzyl) (methyl)carbamoyl)-3-(diphenylcarbamoyl)-3,8-diazabicyclo [3.2.1]octane-2-carboxylic acid]: the IC50 in experiment [1] was 18.9 nM; in experiment [2], above 10000 nM.

`CN(Cc1ccccc1)C(=O)N1[C@H]2CC[C@@H]1[C@@H](C(=O)O)N(C(=O)N(c1ccccc1)c1ccccc1)C2` [Compound C112, (1R,2S,5S)-8-(benzyl(methyl)carbamoyl)-3-(diphenylcarbamoyl)-3,8-diazabicyclo [3.2.1]octane-2-carboxylic acid]: the IC50 in experiment [1] was 21.5 nM; in experiment [2], above 10000 nM.

On to `CC(C(=O)N1C[C@@H]2CC[C@H]([C@H]1C(=O)O)N2C(=O)OCc1ccccc1)(c1ccccc1)c1ccccc1` [Compound C157], for which the IC50 in experiment [1] is 27.1 nM; in experiment [2], above 10000 nM.

With `CCN(Cc1ccccc1)C(=O)N1[C@H]2CC[C@@H]1[C@@H](C(=O)O)N(C(=O)N(c1ccccc1)c1ccccc1)C2` [Compound C155, (1R,2S,5S)-8-(benzyl (ethyl)carbamoyl)-3-(diphenylcarbamoyl)-3,8-diazabicyclo [3.2.1]octane-2-carboxylic acid], the IC50 in experiment [1] is 9.03 nM; in experiment [2] it was above 10000 nM.

In the case of `O=C(O)[C@@H]1[C@H]2CC[C@@H](CN1C(=O)N1c3ccccc3C=Cc3ccccc31)N2C(=O)C(c1ccccc1)c1ccccc1` [Compound C10, (1R,2S,5S)-3-(5H-dibenzo[b,f]azepine-5-carbonyl)-8-(2,2-diphenylacetyl)-3,8-diazabicyclo [3.2.1]octane-2-carboxylic acid], the results for the IC50 in experiment [1] and in experiment [2] were 58.8 nM and above 10000 nM, respectively.

On to `O=C(O)[C@@H]1[C@H]2CC[C@@H](CN1C(=O)C(c1ccccc1)c1ccccc1)N2C(=O)NCc1ccccc1` [Compound C78, (1R,2S,5S)-8-(benzylcarbamoyl)-3-(2,2-diphenylacetyl)-3,8-diazabicyclo[3. 2.1]octane-2-carboxylic acid], for which the IC50 in experiment [1] was 55 nM; in experiment [2], above 10000 nM.

For `O=C(O)[C@@H]1[C@H]2CC[C@@H](CN1C(=O)C(c1ccccc1)c1ccccc1)N2C(=O)Oc1ccccc1` [Compound C79, (1R,2S,5S)-3-(2,2-diphenylacetyl)-8-(phenoxycarbonyl)-3,8-diazabicyclo[3.2.1]octane-2-carboxylic acid], the IC50 in experiment [1] was 24.6 nM; in experiment [2] it was above 10000 nM.

With `CN(Cc1ccccc1)C(=O)N1[C@H]2CC[C@@H]1[C@@H](C(=O)O)N(C(=O)C(c1ccccc1)c1ccccc1)C2` [Compound C82, (1R,2S,5S)-8-(benzyl(methyl)carbamoyl)-3-(2,2-diphenylacetyl)-3,8-diazabicyclo[3.2.1]octane-2-carboxylic acid], the IC50 in experiment [1] is 3.98 nM; in experiment [2], above 10000 nM.

Consider `O=C(O)[C@@H]1[C@H]2CC[C@@H](CN1C(=O)N(c1ccccc1)c1ccccc1)N2C(=O)N(Cc1ccc(Cl)cc1)CC1CC1` [Compound C218, (1R,2S,5S)-8-((4-chlorobenzyl) (cyclopropylmethyl)carbamoyl)-3-(diphenylcarbamoyl)-3,8-diazabicyclo [3.2.1]octane-2-carboxylic acid], for which the IC50 in experiment [1] amounted to 11.5 nM.

Turning to `CN(Cc1csc2ccccc12)C(=O)N1[C@H]2CC[C@@H]1[C@@H](C(=O)O)N(C(=O)N(c1ccccc1)c1ccccc1)C2` [Compound C246], the IC50 in experiment [1] was 10.1 nM.

Compound `CCN(Cc1ccsc1)C(=O)N1[C@H]2CC[C@@H]1[C@@H](C(=O)O)N(C(=O)N(c1ccccc1)c1ccccc1)C2` [Compound C207, (1R,2S,5S)-3-(diphenylcarbamoyl)-8-(ethyl (thiophene-3-ylmethyl)carbamoyl)-3,8-diazabicyclo [3.2.1]octane-2-carboxylic acid] registered an IC50 in experiment [1] of 10.4 nM.

Turning to `C=C(C)c1ccc(CN(C)C(=O)N2[C@H]3CC[C@@H]2[C@@H](C(=O)O)N(C(=O)N(c2ccccc2)c2ccccc2)C3)cc1` [Compound C215], the IC50 in experiment [1] was determined as 26.5 nM.

In turn, `C[C@@H](c1ccccc1)N(C)C(=O)N1[C@H]2CC[C@@H]1[C@@H](C(=O)O)N(C(=O)N(c1ccccc1)c1ccccc1)C2` [Compound C227, (1R,2S,5S)-3-(diphenylcarbamoyl)-8-(methyl ((S)-1-phenylethyl)carbamoyl)-3,8-diazabicyclo [3.2.1]octane-2-carboxylic acid] gave an IC50 in experiment [1] of 18.3 nM.

The compound `CC(CC(=O)N1[C@H]2CC[C@@H]1[C@@H](C(=O)O)N(C(=O)N(c1ccccc1)c1ccccc1)C2)c1ccccc1` (stereo partly drawn) [Compound C224, (1R,2S,5S)-3-(diphenylcarbamoyl)-8-(3-phenylbutylyl)-3,8-diazabicyclo [3.2.1]octane-2-carboxylic acid] displayed an IC50 in experiment [1] of 23.8 nM.

As for `O=C(O)[C@H]1[C@@H]2CC[C@H](CN1C(=O)N(c1ccccc1)c1ccccc1)N2C(=O)N(c1ccccc1)c1ccccc1` [Compound C13, (1S,2R,5R)-3,8-bis (diphenylcarbamoyl)-3,8-diazabicyclo [3.2.1]octane-2-carboxylic acid], the IC50 in experiment [1] turned out to be 22.2 nM.

`CN(Cc1csc(Cl)c1)C(=O)N1[C@H]2CC[C@@H]1[C@@H](C(=O)O)N(C(=O)N(c1ccccc1)c1ccccc1)C2` [Compound C186, (1R,2S,5S)-8-(((5-chlorothiophene-3-yl)methyl) (methyl)carbamoyl)-3-(diphenylcarbamoyl)-3,8-diazabicyclo [3.2.1]octane-2-carboxylic acid] came in with an IC50 in experiment [1] of 64.6 nM.

`CN(Cc1ccccc1)C(=O)N1C[C@@H]2CC[C@H]([C@H]1C(=O)O)N2C(=O)C(c1ccccc1)c1ccccc1` [Compound C62, (1R,2S,5S)-3-(benzyl(methyl)carbamoyl)-8-(2,2-diphenylacetyl)-3,8-diazabicyclo[3.2.1]octane-2-carboxylic acid]: the IC50 in experiment [1] is 104 nM.

As to `O=C(O)[C@@H]1[C@H]2CC[C@@H](CN1C(=O)N(c1ccccc1)c1ccccc1)N2c1nccc(-c2ccccc2)n1` [Compound C210, (1R,2S,5S)-3-(diphenylcarbamoyl)-8-(4-phenylpyrimidine-2-yl)-3,8-diazabicyclo[3.2.1] octane-2-carboxylic acid], the IC50 in experiment [1] amounted to 49.5 nM.

Regarding `CC1(N(Cc2ccsc2)C(=O)N2[C@H]3CC[C@@H]2[C@@H](C(=O)O)N(C(=O)N(c2ccccc2)c2ccccc2)C3)CC1` [Compound C198], the IC50 in experiment [1] was found to be 10.2 nM.

In experiment [1], `Cc1ccc(COC(=O)N2[C@H]3CC[C@@H]2[C@@H](C(=O)O)N(C(=O)C(c2ccccc2)c2ccccc2)C3)cc1` [Compound C194, (1R,2S,5S)-3-(2,2-diphenylacetyl)-8-(((4-methylbenzyl)oxy)carbonyl)-3,8-diazabicyclo [3.2.1]octane-2-carboxylic acid] showed an IC50 of 129 nM.

The compound `O=C(O)[C@@H]1[C@H]2CC[C@@H](CN1C(=O)N(c1ccccc1)c1ccccc1)N2C(=O)C#Cc1ccccc1` [Compound C256, (1R,2S,5S)-3-(diphenylcarbamoyl)-8-(3-phenylpropioloyl)-3,8-diazabicyclo [3.2.1]octane-2-carboxylic acid] showed an IC50 in experiment [1] of 40 nM.

`O=C(O)[C@@H]1[C@H]2CC[C@@H](CN1C(=O)Oc1ccccc1)N2C(=O)N(c1ccccc1)c1ccccc1` [Compound C69, (1R,2S,5S)-8-(diphenylcarbamoyl)-3-(phenoxycarbonyl)-3,8-diazabicyclo [3.2.1]octane-2-carboxylic acid]: the IC50 in experiment [1] worked out at 170 nM.

In experiment [1], `CN(Cc1ccc(Cl)nc1)C(=O)N1[C@H]2CC[C@@H]1[C@@H](C(=O)O)N(C(=O)N(c1ccccc1)c1ccccc1)C2` [Compound C255] registered an IC50 of 13.8 nM.

With `O=C(O)[C@@H]1[C@@H]2CC[C@@H](CC2Oc2ccc([N+](=O)[O-])cc2)N1C(=O)C(c1ccccc1)c1ccccc1` (stereo partly drawn) [Compound C290, (1S,3S,4S)-2-(2,2-diphenyl-acetyl)-5-(4-nitrophenoxy)-2-azabicyclo [2.2.2]octane-3-carboxylic acid], the IC50 in experiment [1] was 561 nM.

`O=C(O)[C@@H]1[C@H]2CC[C@@H](CN1C(=O)N1c3ccccc3Sc3ccccc31)N2C(=O)C(c1ccccc1)c1ccccc1` [Compound C28, (1R,2S,5S)-8-(2,2-diphenylacetyl)-3-(10H-phenothiazine-10-carbonyl)-3,8-diazabicyclo[3.2.1] octane-2-carboxylic acid] gave an IC50 in experiment [1] of 473 nM.

Broadly, the IC50 is the concentration at which inhibition is half-maximal. Low values mean greater potency in that assay, high ones weaker potency in that assay.
